The term IC50 denotes the concentration needed to halve the response being measured. Higher therefore signals lower potency.

Counter-ions that a name gives are not always drawn.

For experiment [1], the system named is human and animal plasma. Briefly: Determination of anticoagulatory activity: activated partial thromboplastin time (aPTT) in plasma. The settings on record: concentration of test substance which brings about a 1.5-fold extension of the aPTT; plasma species not given. The method in brief: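 Citrated plasma (1:9, 0.11 M citrate; 4000 g, 15 min) from human or animal blood incubated with test compound and cephalin/kaolin PTT reagent for 3 min at 37° C.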

The target in experiment [2] is T1, human factor XIa (Homo sapiens, UniProt P03951).
T1 construct: purchased Kordia
Briefly: Measurement of FXIa inhibition (fluorogenic peptide substrate Boc-Glu(OBzl)-Ala-Arg-AMC). It counts as biochemical. As to conditions: factor XIa from Kordia, 15 min preincubation, 30 min at 22° C., fluorescence. The method in brief:
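Released AMC fluorescence (360/460 nm) read after 30 min at 22 °C. The reaction was started with Boc-Glu(OBzl)-Ala-Arg-AMC (10 μM stock) after a 15 min preincubation of the enzyme (0.45 nM stock) with compound (final 50 μM to 0.00013 μM).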

T1 sequence (P03951 388-625 limits assumed): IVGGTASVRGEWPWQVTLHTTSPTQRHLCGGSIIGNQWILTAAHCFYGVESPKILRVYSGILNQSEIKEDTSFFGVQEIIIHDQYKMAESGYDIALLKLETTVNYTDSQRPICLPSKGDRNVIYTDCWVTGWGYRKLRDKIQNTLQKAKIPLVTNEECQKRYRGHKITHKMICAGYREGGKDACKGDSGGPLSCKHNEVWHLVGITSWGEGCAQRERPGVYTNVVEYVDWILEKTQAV
T1 sequence (P03951 19-387 partner limits assumed): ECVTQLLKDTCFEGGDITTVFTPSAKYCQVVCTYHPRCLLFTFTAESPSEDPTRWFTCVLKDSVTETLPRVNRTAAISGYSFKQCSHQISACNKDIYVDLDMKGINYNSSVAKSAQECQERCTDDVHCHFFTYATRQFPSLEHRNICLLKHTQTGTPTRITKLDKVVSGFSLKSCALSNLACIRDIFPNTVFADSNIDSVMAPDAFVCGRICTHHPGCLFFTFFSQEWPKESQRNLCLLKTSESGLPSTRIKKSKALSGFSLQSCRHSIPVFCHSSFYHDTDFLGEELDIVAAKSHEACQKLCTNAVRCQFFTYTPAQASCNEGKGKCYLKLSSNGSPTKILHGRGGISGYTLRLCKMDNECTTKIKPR

With `CCN(CC)CCNC(=O)c1ccc(-c2ccc(C[C@H](NC(=O)[C@H]3CC[C@H](CN)CC3)C(=O)Nc3ccc4c(=O)[nH][nH]c4c3)cc2)c(C)c1` [Example 23, 4′-{(2S)-2-({[trans-4-(Aminomethyl)cyclohexyl]carbonyl}amino)-3-oxo-3-[(3-oxo-2,3-dihydro-1H-indazol-6-yl)amino]propyl}-N-[2-(diethylamino)ethyl]-2-methylbiphenyl-4-carboxamide hydrochloride], the “aPTT” value in experiment [1] stood at 0.28 µmol/L. The compound also returned an IC50 in experiment [2] of 27.5 nM.
In the same order, the values of `Cc1cc(C(=O)NC2CCC(N(C)C)CC2)ccc1-c1ccc(C[C@H](NC(=O)[C@H]2CC[C@H](CN)CC2)C(=O)Nc2ccc(-c3nn[nH]n3)c(F)c2)cc1` (stereo partly drawn) [Example 63, 4′-[(2S)-2-({[trans-4-(Aminomethyl)cyclohexyl]carbonyl}amino)-3-{[3-fluoro-4-(2H-tetrazol-5-yl)phenyl]amino}-3-oxopropyl]-N-[4-(dimethylamino)cyclohexyl]-2-methylbiphenyl-4-carboxamide hydrochloride] are 0.01 µmol/L and 2.1 nM.
Consider `Cc1cc(C(=O)N[C@H]2CCNC2)ccc1-c1ccc(C[C@H](NC(=O)[C@H]2CC[C@H](CN)CC2)C(=O)Nc2ccc3c(=O)[nH][nH]c3c2)cc1` [Example 25, 4′-{(2S)-2-({[trans-4-(Aminomethyl)cyclohexyl]carbonyl}amino)-3-oxo-3-[(3-oxo-2,3-dihydro-1H-indazol-6-yl)amino]propyl}-2-methyl-N-[(3S)-pyrrolidin-3-yl]biphenyl-4-carboxamide hydrochloride], for which, in experiment [1], the “aPTT” value is 0.14 µmol/L. For the same compound, in experiment [2], the midpoint of inhibition, the IC50, lay at 14 nM.
In the same order, the values of `Cc1cc(C(=O)N[C@H]2CCCNC2=O)ccc1-c1ccc(C[C@H](NC(=O)[C@H]2CC[C@H](CN)CC2)C(=O)Nc2ccc3c(Cl)n[nH]c3c2)cc1` [Example 93, 4′-{(2S)-2-({[trans-4-(Aminomethyl)cyclohexyl]carbonyl}amino)-3-[(3-chloro-1H-indazol-6-yl)amino]-3-oxopropyl}-2-methyl-N-[(3S)-2-oxopiperidin-3-yl]biphenyl-4-carboxamide hydrochloride] are 0.21 µmol/L and 2.4 nM.
For `Cc1c(C(=O)NC2CCN(C)CC2)ccc(-c2ccc(C[C@H](NC(=O)[C@H]3CC[C@H](CN)CC3)C(=O)Nc3ccc(-c4nn[nH]n4)cc3)cc2)c1Cl` [Example 125, 4′-[(2S)-2-({[trans-4-(Aminomethyl)cyclohexyl]carbonyl}amino)-3-oxo-3-{[4-(2H-tetrazol-5-yl)phenyl]amino}propyl]-2-chloro-3-methyl-N-(1-methylpiperidin-4-yl)biphenyl-4-carboxamide hydrochloride] the same measures were 0.09 µmol/L and 3 nM.
For `Cc1cc(C(=O)NC2CCNCC2)ccc1-c1ccc(C[C@H](NC(=O)[C@H]2CC[C@H](CN)CC2)C(=O)Nc2ccc3c(=O)[nH][nH]c3c2)cc1` [Example 22, 4′-{(2S)-2-({[trans-4-(Aminomethyl)cyclohexyl]carbonyl}amino)-3-oxo-3-[(3-oxo-2,3-dihydro-1H-indazol-6-yl)amino]propyl}-2-methyl-N-(piperidin-4-yl)biphenyl-4-carboxamide hydrochloride] the same measures were 0.06 µmol/L and 15 nM.
As for `Cc1cc(C(=O)NCCCN(C)C)ccc1-c1ccc(C[C@H](NC(=O)[C@H]2CC[C@H](CN)CC2)C(=O)Nc2ccc(-c3nn[nH]n3)cc2)cc1` [Example 35, 4′-[(2S)-2-({[trans-4-(Aminomethyl)cyclohexyl]carbonyl}amino)-3-oxo-3-{[4-(2H-tetrazol-5-yl)phenyl]amino}propyl]-N-[3-(dimethylamino)propyl]-2-methylbiphenyl-4-carboxamide hydrochloride], the “aPTT” value in experiment [1] was 0.11 µmol/L. Further, the IC50 in experiment [2] came out at 2.3 nM.
In the same order, the values of `Cc1cc(C(=O)NC2CCN(C)CC2)ccc1-c1ccc(C[C@H](NC(=O)[C@H]2CC[C@H](CN)CC2)C(=O)Nc2ccc3[nH]c(C(F)(F)F)nc3c2)cc1` [Example 76, 4′-[(2S)-2-({[trans-4-(Aminomethyl)cyclohexyl]carbonyl}amino)-3-oxo-3-{[2-(trifluoromethyl)-1H-benzimidazol-5-yl]amino}propyl]-2-methyl-N-(1-methylpiperidin-4-yl)biphenyl-4-carboxamide hydrochloride] are 0.37 µmol/L and 25 nM.
As to `NC[C@H]1CC[C@H](C(=O)N[C@@H](Cc2ccc(-c3cc(F)c(C(=O)NC4CCNCC4)c(F)c3)cc2)C(=O)Nc2ccc(-c3nn[nH]n3)cc2)CC1` [Example 118, hydrochloride], the “aPTT” value in experiment [1] stood at 0.11 µmol/L. The IC50 in experiment [2] came out at 2.9 nM.
In the same order, the values of `Cc1cc(C(=O)NC2CCNCC2(C)C)ccc1-c1ccc(C[C@H](NC(=O)[C@H]2CC[C@H](CN)CC2)C(=O)Nc2ccc(-c3nnc(C(F)(F)C(F)(F)C(=O)O)[nH]3)cc2)cc1` (stereo partly drawn) [Example 107, 3-[5-(4-{[(2S)-2-({[trans-4-(Aminomethyl)cyclohexyl]carbonyl}amino)-3-{4′-[(3,3-dimethylpiperidin-4-yl)carbamoyl]-2′-methylbiphenyl-4-yl}propanoyl]amino}phenyl)-4H-1,2,4-triazol-3-yl]-2,2,3,3-tetrafluoropropanoic acid hydrochloride] are 0.1 µmol/L and 1.4 nM.
With `Cc1cc(C(=O)NC2CCN(C)CC2)ccc1-c1ccc(C[C@H](NC(=O)[C@H]2CC[C@H](CN)CC2)C(=O)Nc2ccc3[nH]c(C(F)(F)C(F)(F)F)nc3c2)cc1` [Example 82, 4′-[(2S)-2-({[trans-4-(Aminomethyl)cyclohexyl]carbonyl}amino)-3-oxo-3-{[2-(pentafluoroethyl)-1H-benzimidazol-5-yl]amino}propyl]-2-methyl-N-(1-methylpiperidin-4-yl)biphenyl-4-carboxamide hydrochloride], the “aPTT” value in experiment [1] was found to be 0.39 µmol/L. For the same compound, in experiment [2], the IC50 amounted to 21 nM.
In the same order, the values of `Cc1cc(C(=O)NCCN)ccc1-c1ccc(C[C@H](NC(=O)[C@H]2CC[C@H](CN)CC2)C(=O)Nc2ccc(-c3nn[nH]n3)cc2)cc1` [Example 15, N-(2-Aminoethyl)-4′-[(2S)-2-({[trans-4-(aminomethyl)cyclohexyl]carbonyl}amino)-3-oxo-3-{[4-(2H-tetrazol-5-yl)phenyl]amino}propyl]-2-methylbiphenyl-4-carboxamide hydrochloride] are 0.09 µmol/L and 2.9 nM.
In the same order, the values of `NC[C@H]1CC[C@H](C(=O)N[C@@H](Cc2ccc(-c3ccc(C(=O)NC4CCNCC4)c(F)c3)cc2)C(=O)Nc2ccc(-c3nn[nH]n3)cc2)CC1` [Example 45, 4′-[(2S)-2-({[trans-4-(Aminomethyl)cyclohexyl]carbonyl}amino)-3-oxo-3-{[4-(2H-tetrazol-5-yl)phenyl]amino}propyl]-3-fluoro-N-(piperidin-4-yl)biphenyl-4-carboxamide hydrochloride] are 0.14 µmol/L and 6.2 nM.

Source of the values: patent US20160272617A1, “SUBSTITUTED PHENYLALANINE DERIVATIVES” (BAYER PHARMA AKTIENGESELLSCHAFT, priority 2013, published 2016).
